Results as given in the supplement of paper PMC10307832.

Key:
Assay in all cases: relative viability (nuclei count vs DMSO), 5 days (fraction); higher = more cells survive
Bortezomib + Luminespib = compound: CC(C)C[C@H](NC(=O)[C@H](Cc1ccccc1)NC(=O)c1cnccn1)B(O)O [Bortezomib] + CCNC(=O)c1noc(-c2cc(C(C)C)c(O)cc2O)c1-c1ccc(CN2CCOCC2)cc1 [Luminespib] (partner 0.01 µM)
In short: (§1)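 Medians of duplicate plates are given as relative viability. That measure is the nuclei count in treated wells divided by the count in vehicle wells. Counts were taken on 4× images of lung cancer cell lines in 1536-well plates, 5 days after pin-tool dosing the day after seeding with one drug alone or a fixed anchor-drug dose plus five library-drug doses (not always all listed) in √10 steps.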

[1] = compound: CC1=CC(=NN1)NC2=CC(=NC(=N2)/C=C/C3=CC=CC=C3)N4CCN(CC4)C + CC(=O)c1c(C)c2cnc(Nc3ccc(N4CCNCC4)cn3)nc2n(C2CCCC2)c1=O [Palbociclib] (partner 0.5 µM)
In short: as §1

Bortezomib + Linsitinib = compound: CC(C)C[C@H](NC(=O)[C@H](Cc1ccccc1)NC(=O)c1cnccn1)B(O)O [Bortezomib] + C[C@]1(O)C[C@@H](c2nc(-c3ccc4ccc(-c5ccccc5)nc4c3)c3c(N)nccn32)C1 [Linsitinib] (partner 1 µM)
In short: as §1

Bortezomib + OSI-027 = compound: CC(C)C[C@H](NC(=O)[C@H](Cc1ccccc1)NC(=O)c1cnccn1)B(O)O [Bortezomib] + COc1cccc2cc(-c3nc([C@H]4CC[C@H](C(=O)O)CC4)n4ncnc(N)c34)[nH]c12 [OSI-027] (partner 0.5 µM)
In short: as §1

Cell Line	relative viability (Bortezomib + Luminespib; first compound 0.0002 µM)	relative viability (Bortezomib + Luminespib; first compound 0.000632 µM)	relative viability (Bortezomib + Luminespib; first compound 0.002 µM)	relative viability (Bortezomib + Luminespib; first compound 0.006325 µM)	relative viability (Bortezomib + Luminespib; first compound 0.02 µM)	relative viability ([1]; first compound 0.08 µM)	relative viability ([1]; first compound 0.253 µM)	relative viability ([1]; first compound 0.8 µM)	relative viability ([1]; first compound 2.53 µM)	relative viability ([1]; first compound 8 µM)	relative viability (Bortezomib + Linsitinib; first compound 0.0002 µM)	relative viability (Bortezomib + Linsitinib; first compound 0.000632 µM)	relative viability (Bortezomib + Linsitinib; first compound 0.002 µM)	relative viability (Bortezomib + Linsitinib; first compound 0.006325 µM)	relative viability (Bortezomib + Linsitinib; first compound 0.02 µM)	relative viability (Bortezomib + OSI-027; first compound 0.0002 µM)	relative viability (Bortezomib + OSI-027; first compound 0.000632 µM)	relative viability (Bortezomib + OSI-027; first compound 0.002 µM)	relative viability (Bortezomib + OSI-027; first compound 0.006325 µM)	relative viability (Bortezomib + OSI-027; first compound 0.02 µM)
NCI-H838	0.428	0.302	0.264	0.124	0.103	0.243	0.241	0.169	0.127	0.106	0.995	1.01	0.962	0.142	0.145	0.355	0.363	0.44	0.178	0.131
NCI-H1355	0.668	0.657	0.645	0.233	0.167	0.442	0.444	0.387	0.309	0.165	0.85	0.777	0.615	0.837	0.124	0.386	0.356	0.44	0.22	0.163
NCI-H1395	0.864	0.761	0.445	0.334	0.263	0.557	0.635	0.628	0.433	0.285	1.02	0.97	0.463	0.382	0.347	0.574	0.529	0.639	0.353	0.271
NCI-H1437	1.11	1.07	1.14	0.165	0.155	0.304	0.317	0.307	0.231	0.152	1.04	1.1	0.885	0.0922	0.101	0.86	0.825	0.871	0.138	0.132
NCI-H1651	0.868	0.906	1.07	0.154	0.114	0.525	0.536	0.496	0.462	0.266	0.943	0.996	0.31	0.133	0.12	0.661	0.641	0.416	0.109	0.11
NCI-H1666	0.951	1.02	0.98	0.319	0.322	0.684	0.621	0.567	0.638	0.604	0.791	0.777	0.932	0.226	0.2	0.802	0.869	0.945	0.43	0.324
NCI-H1734	0.181	0.186	0.178	0.129	0.101	0.34	0.278	0.313	0.249	0.13	0.898	0.674	0.814	0.192	0.129	0.635	0.452	0.541	0.164	0.133
NCI-H1755	0.494	0.418	0.417	0.21	0.181	0.413	0.433	0.466	0.382	0.325	1.01	0.955	1	0.323	0.149	0.706	0.568	0.68	0.27	0.228
NCI-H1792	0.321	0.452	0.282	0.451	0.229	0.649	0.751	0.684	0.559	0.155	0.526	0.594	0.352	0.537	0.221	0.687	0.577	0.563	0.654	0.497
NCI-H1793	0.184	0.151	0.171	0.204	0.127	0.325	0.374	0.273	0.157	0.144	0.771	0.723	0.808	0.778	0.149	0.278	0.213	0.272	0.223	0.145
NCI-H1915	0.724	0.732	0.721	0.0571	0.0533	0.531	0.526	0.484	0.354	0.226	1.13	1.13	1.01	1.07	0.0602	0.582	0.507	0.613	0.186	0.0754
NCI-H1944	0.715	0.697	0.763	0.548	0.167	0.373	0.341	0.338	0.264	0.189	1.13	1.06	1.06	1.23	0.627	0.383	0.383	0.449	0.347	0.239
NCI-H1975	0.192	0.122	0.158	0.138	0.177	0.533	0.754	0.593	0.285	0.111	0.965	0.964	0.189	0.144	0.125	0.674	0.624	0.196	0.111	0.106
NCI-H1993	0.799	0.807	0.991	0.428	0.4	0.639	0.397	0.711	0.49	0.267	0.683	0.766	0.733	0.499	0.58	0.508	0.552	0.546	0.47	0.53
NCI-H2009	0.954	0.988	1.06	0.803	0.0826	0.191	0.18	0.216	0.129	0.102	1.12	1.22	1.18	0.0695	0.058	0.664	0.585	0.486	0.0717	0.084
NCI-H2023	0.638	0.694	0.789	0.118	0.0549	0.406	0.451	0.301	0.111	0.0652	0.68	0.723	0.711	0.102	0.0845	0.464	0.373	0.43	0.0814	0.0616
